Series [1] deals with rat primary hippocampal neurons. The conditions noted are these: previously reported study [40]; cited from earlier work.
Another series deals with RasGRF1. In words: Western blot analysis of RasGRF1 expression. The following applies: differentiated SH-SY5Y cells; for increase in RasGRF1 expression compared to untreated cells: 5 μM, 24 h, normalized to β-tubulin. In kind it is cell-based, human. The procedure:
Western Blot Analysis of Ras-GRF1 Expression in SH-SY5Y Cells Exposed to BAMs 1-3 or BTA-EG6. Differentiation of SH-SY5Y cells was performed according to a previously described procedure. Briefly, cells were differentiated for 8 days by the addition of 10 μM all-trans-retinoic acid (RA) in the cell culture medium (1:1 EMEM and Ham's F12 supplemented with 10% FBS). Media with RA was changed every 2 days. After 8 days, the media was removed and new, RA-free media containing the sample solutions was added. Cells were exposed to solutions containing a final concentration of the BTA-E6 and BAMs (0, 1, or 5 μM) for 24 hours at 37° C. Cells were than lysed with NP-40 buffer with protease inhibitor (Roche, ref #05892791001) and protein concentration was determined by BCA assay (Pierce BCA Assay Kit, #23225). Proteins were separated by SDS-PAGE (NUPAGE® 4-12% Bis-Tris gel, NUPAGE® MES SDS running buffer) followed by transfer onto nitrocellulose membrane (NOVEX®, LC2000). Membranes were blocked with 3% BSA in Tris-Buffered Saline with Tween 20 (TBST) for 1 h followed by incubation with primary antibodies in 3% BSA/TBST [mouse anti-RasGRF1 (BD 610149) and mouse anti-tubulin-β (Thermo MS1226-P)] overnight at 4° C. with shaking. Membranes were then washed with TBST (3×10 min) and then incubated with a TRITC labeled goat anti-mouse antibody (JAX 115-025-003) for 1 h at RT with shaking. After 1 h, the membranes were washed with TBST (6×5 min) and the proteins were visualized using a Typhoon 8600 variable mode imager (GE Healthcare). The density of each band was then quantified using ImageJ software as a percentage of control following normalization to β-tubulin.
Background: Immunoblotting shows a protein as a band on a membrane.

Series [2] deals with rat primary hippocampal neurons. The series is described as follows: Dendritic spine density and morphology in primary hippocampal neurons. It is filed as cell-based. The following applies: 24 h exposure, versus vehicle control (0.1% DMSO). As for the experimental part: Neuronal Cultures. Rat dissociated hippocampal neurons from postnatal day 1 were plated at a density of 45,000 cells/cm^2 onto poly-D-lysine-coated coverslips. Neurons were maintained in B27 supplemented Neurobasal media (Invitrogen) until days in vitro (DIV) 18-23 as previously described.
Neuronal Treatments. For all neuronal treatments the following general protocol was followed: Briefly, 18-23 DIV rat dissociated hippocampal neurons were dosed with various concentrations (0-50 μM final concentration) of BAMs 1-3 or BTA-EGx (with 0.1% final DMSO concentration) for various times (24-72 h depending on the experiment). After dosing and at the desired time point, the media was removed and cells were rinsed with PBS-MC (phosphate-buffered saline, 1 mM MgCl2 and 0.1 mM CaCl2). Following rinsing, cells were fixed with 4% paraformaldehyde (PFA)/sucrose in PBS for 10 min at RT. […]
Confocal Microscopy and Dendritic Spine Analysis. […] Imaged dendrites were straightened using ImageJ, and spine density was the number of manually counted spines divided by dendrite segment length. The analyzer was blind to treatment and statistical significance was determined between experimental conditions by either unpaired t tests (two groups) or by ANOVA and indicated post hoc multiple-comparison test (>2 experimental conditions).

In series [3] the test system is human iPSC-derived neurons. In words: Spine density of PSD95 puncta in 3-month differentiated NSC. It is filed as cell-based. The following applies: 5 μM, control DMSO (0.1%). As for the experimental part: FIG. 10. Quantification of spine density of PSD95 puncta from 3-month differentiated NSC treated with compound or vehicle control The figure depicts neuron micrographs with staining for MAP2, PSD95 and composite under control and compound administration conditions. “Compound” refers to BAM3-EG6 (5 μM), as depicted in FIG. 1. “Control” refers to DMSO (0.1%). MAP2 is a marker for dendrites, and PSD95 is a marker for post-synaptic features. A histogram (below) depicts normalized PSD95 puncta under control and compound administration conditions. It is observed that […] increases spine density by about 50% compared to control in human iPSC-derived neurons.
FIG. 10 depicts quantification of spine density of PSD95 puncta from 3-month differentiated NSC treated with compound or vehicle control. It is observed that BTA-EG4 analog (e.g., those depicted in FIG. 1) increases spine density by about 50% compared to control in human iPSC-derived neurons.

The conditions of series [4]: previously reported [18,19], cited from earlier work.
A short description of series [5]: Fluorescence emission spectra in water, octanol and aqueous liposome suspension (membrane partitioning). In kind it is physicochemical. The conditions noted are these: 50 μM compound, DiPhyPC liposomes. As for the experimental part:
Measurement of Fluorescence Emission Spectra. The emission spectra of benzothiazoles in different environments was evaluated as previously described. Briefly, BAMs 1-3 and BTA-EG6 were diluted to a final concentration of 50 μM in deionized H2O, pure octanol, and a liposome suspension. The liposomes were prepared from a total lipid concentration of 10 mM of DiPhyPC in water by the gentle dehydration rehydration method followed by tip sonication. 200 μL of each sample was transferred to a cuvette (Hellma® Analytics, Quartz […]® (QS), 10 mm) and the fluorescence emission spectrum was measured in a PTI spectrofluorometer (0.5 nm step size) in water, octanol and an aqueous liposome suspension for BAMs 1-3 and BTA-EG6. Maximal excitation and emission values (λmax) for all compounds were as follows: BTA-EG6 (Ex/Em 355/420 nm), BAM1-EG6 (Ex/Em 355/420 nm), BAM2-EG6, (Ex/Em 365/428 nm), and BAM3-EG6 (Ex/Em 335/398 nm). Each experiment was repeated at least three separate times and error bars denote standard deviation from the mean. Data was processed using ORIGIN® 7.0 (MicroCal Software, Inc., Northampton, Mass.).

Series [6] relates to SH-SY5Y human neuroblastoma cells. In words: MTT cell viability assay. It is filed as cell-based. The following applies: 24 h exposure, read-out: IC50 of toxicity. As for the experimental part: Measurement of Cell Viability in the Presence of BAMs 1-3 and BTA-EG6. An MTT cell viability assay was performed as previously described. Briefly, SH-SY5Y cells were plated in a 96 well plate at a density of 50,000 cells/well in 100 μL of 1:1 Eagle's Minimum Essential Medium (EMEM) and Ham's F12, supplemented with 10% Fetal Bovine Serum (FBS). Cells were allowed to adhere overnight (37° C., 5% CO2) before dosing with 100 μL of various samples solutions of either BTA-EG6 or BAMs 1-3 with final concentrations (0-250 Cells were exposed to these solutions for 24 h at 37° C., 5% CO2. An MTT cell viability kit (ATCC, Product No: 30-1010K) was then used to determine cell viability. Briefly, 20 μL of the provided MTT reagent was added per well and cells were placed in the incubator for 3 h. The insoluble intracellular purple formazan was then dissolved by the addition of 100 μL of detergent reagent provided and let solubilize overnight at room temperature. The cell viability was determined by measuring the absorbance at 570 nm using a SPECTRAMAX® 190 microplate reader (Molecular Devices). All results are presented as percent reduction of MTT relative to untreated cells (100% viability), and all wells were blanked with absorbance values from the wells containing media, MTT reagent and detergent only.

For series [7], the system named is rat primary hippocampal neurons. In words: Rescue of Aβ-induced spine loss. It is filed as cell-based. The following applies: 1 μM Aβ (1-42) plus 1 or 5 μM compound, 3 days.

By IC50 is commonly meant the midpoint of a concentration-inhibition curve.

Regarding `C[C@]12CC[C@@H]3c4ccc(O)cc4CC[C@H]3[C@@H]1CC[C@@H]2O` [17β-estradiol], the “time required to induce maximal increase in spine density” value in series [1] is 96 h.
With `OCCOCCOCCOCCOCCOCCSc1ccc(-c2nc3ccccc3s2)cc1` [BAM3-EG6, 17-((4-(benzo[d]thiazol-2-yl)phenyl)thio)-3,6,9,12,15-pentaoxaheptadecan-1-ol], in the series with RasGRF1, the “increase in RasGRF1 expression compared to untreated cells” value (“increase in RasGRF1 expression” below) is given as 70%.
With `Cc1ccc2nc(-c3ccc(NCCOCCOCCOCCO)cc3)sc2c1` [BTA-EG4], the “increase in RasGRF1 expression” value in the series with RasGRF1 stood at 20%. In addition, the “effect on RasGRF1 expression levels (in words)” value in the series on RasGRF1 (1 or 5 μM / increasing concentrations) is reported as “dose-dependent increase in RasGRF1 levels”. In addition, the “effect on dendritic spine density (in words)” value in series [2] was “observed increase in dendritic spine density over the vehicle control”. Also, the “increase in spine density (PSD95 puncta) compared to control” value in series [3] is on record as “about 50%”. The “dendritic spine density in vivo” value in series [4] (mice) was “phenotypic increase in dendritic spine density”. For the same compound, the “memory and learning in cognitive performance tests” value in series [4] (wild-type mice and mouse model for AD) is “capability to improve memory and learning”.
`Cc1ccc2nc(-c3ccc(NCCOCCOCCOCCOCCOCCO)cc3)sc2c1` [BTA-EG6]: the “change of emission max (λmax) in aqueous liposome suspension from water, relative to λmax in pure octanol” value in series [5] is listed as 50%. Further, in series [6], the IC50 was determined as 90 µM. The “increase in RasGRF1 expression” value in the series on RasGRF1 is “approximately 20%”. In addition, in series [7], the “net increase in dendritic spine density compared to control” value is on record as approximately 20% and the “spine density higher than in cells treated with Aβ (1-42) alone” value is on record as approximately 50%.

The values are drawn from US10675273B2, “Benzothiazole amphiphiles” (The Regents of the University of California, priority 2016, dated 2020).
